According to publication PMC8916643, “Molecular physiology of pumiliotoxin sequestration in a poison frog” (PLoS ONE, 2022):

Key:
[1] = Alkaloid feeding experiment, alkaloid abundance in tissues by LC-MS/MS; format: in vivo, Dendrobates tinctorius
Description: Lab-reared (non-toxic) Dendrobates tinctorius were housed in terraria with live plants, a water pool, and a shelter. Ten adult females were size-matched, randomly assigned to control or experimental groups (N = 5 per group), and then housed individually. To measure the specific effects of PTX 251D compared to a background toxicity, the control group was fed 0.01% DHQ (Sigma-Aldrich, St. Louis, USA) in a solution of 1% EtOH and the experimental group was fed a solution of 0.01% DHQ and 0.01% PTX 251D (PepTech, Burlington, MA, USA) in a solution of 1% EtOH in water. Each frog was fed 15 μL each day for five days by pipetting the solution directly into the mouth between 10am-12pm. On the afternoon of the fifth day, frogs were euthanized by cervical transection and the dorsal skin, liver, intestines, and oocytes were dissected into Trizol (Thermo Fisher Scientific, Waltham, USA).
To isolate alkaloids, 0.3 mL of 100% EtOH was added to 1mL of organic layer from the Trizol RNA extraction, inverted 10 times, and stored at room temperature for 2–3 minutes to precipitate genomic DNA, which was pelleted by centrifugation at 2000g for 5 minutes at 4°C. Then, 300 μL of supernatant was transferred to a new microfuge tube. Proteins were precipitated by adding 900 μL of acetone, mixing by inversion for 10–15 seconds, incubating at room temperature for 10 min, and centrifuging at max speed for 10 min at 4°C. Then, 1 mL of the supernatant containing alkaloids was moved into a glass vial and stored at -20°C until dried down completely under a gentle nitrogen gas flow.
Samples were resuspended in 200 μl of methanol:chloroform 1:1 and 1 μM Nicotine-d3 (used as an internal standard). A 10-point standard curve was prepared in the same solution with DHQ and PTX 251D. A QE+ mass spectrometer coupled to an Ultimate3000 LC (ThermoFisher) was used for analysis. […] The gradient was 0% B for 1 min, then increased to 100% B in 14 min, followed by 5 min at 100% B and 3.5 min at 0% B. Data were quantified using accurate mass, using the standard curve for DHQ and PTX 251D for absolute quantification. aPTX 267A was identified by accurate mass and MS/MS fragmentation similarity to PTX.
R version 3.6.3 was used for all statistical analyses, and all plotting and statistics code is provided in a S1 File. There were instances in the LC-MS/MS data where the molecules of interest (DHQ, PTX 251D, or aPTX 267A) were not detected, and these were converted to zeros prior to statistical analyses and visualization. […] PTX 251D and DHQ were analyzed separately. The abundance of aPTX 267A was approximated using the area-under-the-curve divided by the internal nicotine standard, and as there is no standard for aPTX 267A, exact pmol values could not be calculated. […]

mice = conditions: cited from earlier work

| Structure (SMILES) | DHQ abundance across tissue types ([1]; fed orally daily for five days, skin, liver, intestines, oocytes) | aPTX 267A abundance across tissues ([1]; DHQ+PTX feeding group) | aPTX 267A in the skin after PTX 251D feeding ([1]; DHQ+PTX feeding group vs DHQ-fed group, all individuals, area-under-the-curve divided by internal nicotine standard) | lethal dose (hyperactivity, convulsions, and death) (mice; injected into mice) [mg/kg] | lethal dose relative to that of PTX 251D (mice; mice) |
| --- | --- | --- | --- | --- | --- |
| C1CCC2NCCCC2C1 (centres unmarked) [DHQ, reference compound] | highest levels occurring in the liver and skin | – | – | – | – |
| CCCCC(C)C=C1CN2CCCC2C(C)(O)C1O (centres unmarked) [aPTX 267A, allopumiliotoxin (aPTX 267A)] | – | greater abundance in the skin than the oocytes | higher levels than the DHQ-fed group | 2 | five times lower |
